Earlier results on one compound are cited in patent US9670196B2, “Thiazole-substituted aminoheteroaryls as Spleen Tyrosine Kinase inhibitors” (Merck Sharp & Dohme Corp., priority 2013, dated 2017).

The conditions of data set [1]: dosed intranasally, phase I/II study, allergic rhinitis; cited from earlier work.
The conditions of data set [2]: phase II clinical trial for allergic rhinitis; cited from earlier work.

Regarding `Oc1cccc(Nc2ncc(F)c(Nc3cccc(O)c3)n2)c1` [Example R112], in data set [1], the PGD2 entry was “statistically significant decrease” and the clinical safety result is “safe across a range of indicators”. The efficacy versus placebo entry in data set [2] is given as “lack of efficacy versus placebo”.
